Data: patent US20030215787A1, “Modulators of the CLC-7 chloride channel and methods for their identification and use in the treatment and prevention of osteoporosis and related disease states” (priority 2002, published 2003)

B1: RANKL: recombinant soluble RANKL: extracellular domain of human RANKL (amino acids 158-317) fused to glutathione-S-transferase, expressed in E. coli (protein, UniProt O14788 158-317, looked up, fragment)
chain: SKLEAQPFAHLTINATDIPSGSHKVSLSSWYHDRGWAKISNMTFSNGKLIVNQDGFYYLYANICFRHHETSGDLATEYLQLMVYVTKTSIKIPSSHTLMKGGSTKYWSGNSEFHFYSINVGGFFKLRSGEEISIEVSNPSLLDPDQDATYFGAFKVRDID
modifications: extracellular domain GST fusion
notes: recombinant soluble RANKL: extracellular domain of human RANKL (amino acids 158-317) fused to glutathione-S-transferase, expressed in E. coli

Legend:
mature osteoclasts = settings: known non-specific chloride channel inhibitor; cited from earlier work
Raw264.7 cells = experiment: RNAi transfection and bone resorption (bovine cortical bone particles, C-telopeptide Crosslaps ELISA); type: cell-based, mouse; settings: 100 ng/ml RANKL, day 7, FIG. 2
Protocol: For RNAi transfection and bone resorption, the experiment was performed as follows: 1×10^4 Raw264.7 cells were seeded per 48 well and were cultured for 4 days with 100 ng/ml RANKL. The RNAi reagent was obtained from Sequitur. On day 4, the cells were transfected with 150 nM RNAi and 2 μg/ml lipofectamine overnight. The next day, the medium was replaced and 10 mg of powered bovine cortical bone particles (PelFreeze, Inc) were distributed into each well (James, I. E., et al. (1999) J. Bone Miner. Res., 14:1562-9). The particles were resuspended in […] of tissue culture media and incubated at 4° C. for 24 h storage. 200 μl bone particles were added to the precultured cells. The bone particles were allowed to settle for 10 min, and the cells were cultured for another 48 h at which time 100 μl of the supernatant was removed for the C-telopeptide Crosslaps™ ELISA analysis according to the manufacturer's instructions (Nordic Bioscience/Denmark). The absorbance was measured at 450 nm (Molecular Devices, Sunnyvale, Calif.).

Molecule | acidification of mature osteoclasts (mature osteoclasts) | increase of bone resorption (Raw264.7 cells) [fold]
O=C(O)c1cccnc1Nc1cccc(C(F)(F)F)c1 [niflumic acid] | inhibits the acidification | 
B1 |  | 2.2
